Experiments:
[1] = tested on: mouse embryonic stem cells; assay: genome-wide transcriptional profiling (U74Av2 chip); type: cell-based; conditions: TSA 300 nM, tubacin 2 μM
Experimental: Gene expression analysis of tubacin, TSA, and DMSO-treated mouse embryonic stem cells were performed according to the Affymetrix protocol using an U74Av2 chip as described in full (K. M. Koeller et al., Chemistry & Biology, 10 (5) (2003) pp. 397-410). Present calls were determined by accompanying software and data analysis, including array normalization and clustering, performed using dChip software [C. Li and W. H. Wong, Genome Biol. 2, 32 (2001); and E. E. Schadt, C. Li, B. Ellis and W. H. Wong, J. Cell Biochem. Suppl. 37, 120 (2001)].

HDAC6F H216A mutant [2] = target: T1, HDAC6F H216A mutant (Homo sapiens, UniProt Q9UBN7, H216A); assay: in vitro deacetylase assay with [3H]-histones, HDAC6F H216A mutant; type: biochemical; conditions: [3H]-labeled histones, n=3
T1 construct: made in house; host or cells: TAg Jurkat cells, transient transfection, anti-FLAG M2 immunoprecipitation
T1 sequence (Q9UBN7 1-1215 H216A): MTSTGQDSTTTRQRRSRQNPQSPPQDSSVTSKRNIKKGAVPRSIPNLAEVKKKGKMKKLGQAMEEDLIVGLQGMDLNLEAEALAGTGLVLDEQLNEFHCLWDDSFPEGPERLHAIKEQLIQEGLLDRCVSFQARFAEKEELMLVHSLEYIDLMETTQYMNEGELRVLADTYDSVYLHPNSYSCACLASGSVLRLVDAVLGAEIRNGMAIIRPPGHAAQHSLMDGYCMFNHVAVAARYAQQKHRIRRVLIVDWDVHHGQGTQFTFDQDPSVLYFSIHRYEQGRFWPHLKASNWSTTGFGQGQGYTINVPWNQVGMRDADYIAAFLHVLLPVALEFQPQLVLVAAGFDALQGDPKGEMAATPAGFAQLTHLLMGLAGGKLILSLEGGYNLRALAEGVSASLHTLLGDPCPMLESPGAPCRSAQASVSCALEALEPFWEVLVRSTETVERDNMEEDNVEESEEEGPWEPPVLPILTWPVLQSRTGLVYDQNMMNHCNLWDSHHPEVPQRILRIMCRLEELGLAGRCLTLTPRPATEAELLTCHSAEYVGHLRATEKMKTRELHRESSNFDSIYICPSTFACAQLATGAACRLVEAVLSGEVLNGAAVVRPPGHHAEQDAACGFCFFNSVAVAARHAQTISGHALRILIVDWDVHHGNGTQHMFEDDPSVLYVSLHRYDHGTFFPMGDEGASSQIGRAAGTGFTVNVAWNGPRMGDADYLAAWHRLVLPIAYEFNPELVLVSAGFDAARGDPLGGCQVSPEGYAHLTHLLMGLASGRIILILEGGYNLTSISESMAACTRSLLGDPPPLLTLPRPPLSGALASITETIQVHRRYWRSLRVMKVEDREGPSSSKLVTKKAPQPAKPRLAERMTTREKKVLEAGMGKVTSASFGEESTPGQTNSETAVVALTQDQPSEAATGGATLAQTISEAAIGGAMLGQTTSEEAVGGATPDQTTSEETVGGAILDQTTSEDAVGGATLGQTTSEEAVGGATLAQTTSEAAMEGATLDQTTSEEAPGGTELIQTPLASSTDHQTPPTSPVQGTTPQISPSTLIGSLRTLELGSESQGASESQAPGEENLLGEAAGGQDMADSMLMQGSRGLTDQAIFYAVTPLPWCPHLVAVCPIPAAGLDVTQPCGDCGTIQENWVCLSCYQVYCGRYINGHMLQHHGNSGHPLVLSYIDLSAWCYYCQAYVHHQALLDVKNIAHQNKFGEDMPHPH
Experimental: (§1) FLAG-tagged HDAC pBJ5 constructs were transiently transfected by electroporation with 5 μg DNA for expression of recombinant proteins (C. M. Grozinger, C. A. Hassig and S. L. Schreiber, Proc. Natl. Acad. Sci. USA, 27, 4868 (1999); and C. A. Hassig et al., Proc. Natl. Acad. Sci. USA 95, 3519 (1998)]. Cells were mock transfected without DNA or with a non-FLAG-tagged pCMV-LacZ construct as a negative control. Forty-eight hours after transfection recombinant proteins were immunoprecipitated using anti-FLAG M2 agarose affinity gel beads as described [C. A. Hassig et al., Proc. Natl. Acad. Sci. USA 95, 3519 (1998)]. Western blotting using anti-acetylated α-tubulin (1:1000) anti-tubulin (1:1000), and anti-acetylated (K9, K14) histone H3 (1:1000) antibodies was performed using standard methods (K. M. Koeller et al., Chemistry & Biology, 10 (5) (2003) pp. 397-410). […]
(§2) [^3H]Acetate-incorporated histones were isolated from butyrate-treated HeLa cells as described [J. Taunton, C. […] Immunoprecipitates were incubated with acetylated histones and HDAC activity determined by scintillation counting as described [J. Taunton, C. […] After centrifugation, the supernatant (diluted to 0.4 μg tubulin) and α-FLAG M2 agarose affinity gel beads were analyzed by western blotting with an anti-FLAG M2 antibody (1:1750) to ensure equal protein levels.

HDAC6F H216A mutant [3] = target: T1, HDAC6F H216A mutant; assay: in vitro tubulin deacetylase (TDAC) assay, HDAC6F H216A mutant; type: biochemical; conditions: acetylated tubulin as substrate
Experimental: as §1, §2

| SMILES | number of genes with altered expression above a 1.3-fold threshold [1] | inhibition of HDAC activity of HDAC6F H216A mutant (HDAC6F H216A mutant [2]) | inhibition of TDAC activity of HDAC6F H216A mutant (HDAC6F H216A mutant [3]) |
| --- | --- | --- | --- |
| CC(/C=C/C(=O)NO)=C\[C@@H](C)C(=O)c1ccc(N(C)C)cc1 [TSA, trichostatin A, reference compound] | 232 genes | only partial inhibited by TSA or tubacin | exhibited TDAC activity that was inhibited by tubacin and TSA |
| O=C(CCCCCCC(=O)Nc1ccc([C@@H]2OC(c3ccc(CO)cc3)C[C@H](CSc3nc(-c4ccccc4)c(-c4ccccc4)o3)O2)cc1)NO (stereo partly drawn) [tubacin] | no genes showed a significant alteration in expression | only partial inhibited by TSA or tubacin | exhibited TDAC activity that was inhibited by tubacin and TSA |

From patent US8178579B2, “Dioxanes and uses thereof” (President and Fellows of Harvard College, priority 2001, dated 2012)
